# Results taken from patent US9958451B2, “Near-infrared fluorescent dyes with large stokes shifts” (Portland State University, priority 2011, dated 2018).
# Where “and” joins values, the source holds several entries; their conditions need not be identical. Equal values may be shown once. Marks after values point to notes of the source that are not given here.
# Legend:
# [1] = UV-visible absorbance spectroscopy, 15 μM in 90% aqueous, 10% DMSO; assay type: physicochemical; details: for Red shift of absorption spectra from 3-1 transposition versus known regiochemistry: depending on the ionization state
# Experimental: Compounds 21 and 7 were characterized by UV-visible spectroscopy (FIG. 15). Absorbance was measured using 15 μM solutions of each compound in a solution that was 90% aqueous, 10% DMSO. The peaks at 600 nm (light dashed line) and 675 nm (light solid line) represent the dianions of compounds 21 and 7, respectively, in NaOH (pH 12). The peaks at 590 nm (heavy dashed line) and 650 nm (heavy solid line) represent a mix of mono- and dianions of compound 21 at pH 7.4 and predominantly monoanions of compound 7 at pH 9, respectively.
# Compounds 22 and 8 were characterized by UV-visible spectroscopy (FIG. 16). Absorbance was measured using 15 μM solutions of each compound in a solution that was 90% aqueous, 10% DMSO. The peaks at 610 nm (light dashed line) and 685 nm (light solid line) represent the anions of compounds 22 and 8, respectively, in NaOH (pH 12). The peaks at 605 nm (heavy dashed line) and 805 nm (heavy solid line) represent the neutral forms of compounds 22 and 8 at pH 7.4, respectively.
# Compounds 20a and 15a were characterized by UV-visible spectroscopy (FIG. 17). Absorbance was measured using 15 μM solutions of each compound in a solution that was 90% aqueous, 10% DMSO. The peaks at 545 nm (light dashed line) and 595 nm (light solid line) represent the respective anions, compounds 20c and 15h, in NaOH (pH 12).
# Compound 15b (free amino) was characterized by UV-visible spectroscopy (FIG. 18), and compared to C.SNARF-5 (literature, SNARF=seminaphthorhodafluor). Absorbance was measured using a 15 μM solution of compound 15b in a solution that was 90% aqueous, 10% DMSO. The peak at 535 nm (heavy line) represents the predominantly phenolic form of 15b at pH 6. The peak at 615 nm (light line) represents the phenoxide of compound 15b at in NaOH (pH12). In comparison, C.SNARF-5 produces a peak at 550 nm (anionic form) and a peak at 485 nm (neutral form) (Whitaker et al., Anal. Biochem. 1991, 194, 330-344).
# Absorbance was measured using 15 μM solutions of compound 15d in a solution that was 90% aqueous, 10% DMSO. The peak at 570 nm (heavy line) represents the predominantly neutral form of 15d at pH 6. The peak at 630 nm (light line) represents the phenoxide of compound 15d in NaOH (pH 12).
# Compounds 20b and 15g were characterized by UV-visible spectroscopy (FIG. 20). Absorbance was measured using 15 μM solutions of each compound in a solution that was 90% aqueous, 10% DMSO. The peaks at 540 nm (dashed line) and 570 nm (solid line) represent the cations of compounds 20b and 15g, respectively, at pH 7.4.
# [2] = Fluorescence emission spectra, 15 μM in 90% aqueous, 10% DMSO; assay type: physicochemical; details: for Red-shifted emission from 3-1 transposition versus known regiochemistry: longest wavelength-emitting species
# Experimental: Compounds 21 and 7 also were characterized by their fluorescence emission spectra. Fluorescence was measured using 15 μM solutions of each compound in a solution that was 90% aqueous, 10% DMSO. For compound 21, the longest wavelength emission observed from the dianions occurred near 680 nm at pH 9. For compound 7 (transposed), the longest wavelength emission observed from the monoanion occurred near 800 nm at pH 9.
# Compounds 22 and 8 also were characterized by their fluorescence emission spectra. Fluorescence was measured using 15 μM solutions of each compound in a solution that was 90% aqueous, 10% DMSO For compound 22, the longest wavelength emission observed from the anion occurred near 690 nm at pH 9. […] Given the greater than 800 nm absorbance peak and the typically large Stokes shifts observed in this class of compounds, it is likely that the emission was beyond the working range of the instrument (>850 nm).
# Compounds 20 and 15a also were characterized by their fluorescence emission spectra. Fluorescence was measured using 15 μM solutions of each compound in a solution that was 90% aqueous, 10% DMSO. For compound 20a, the longest wavelength emission observed from its corresponding anion, compound 20c, occurred near 640 nm in NaOH (pH 12). For compound 15a (transposed), the longest wavelength emission observed from the corresponding anion, compound 15h, occurred near 760 nm in NaOH.
# Compound 15b also was characterized by its fluorescence emission spectrum and compared to C.SNARF-5. Fluorescence was measured using a 15 μM solution of compound 15b in a solution that was 90% aqueous, 10% DMSO. For C.SNARF-5, the longest wavelength emission observed from the anion occurred near 632 nm (Whitaker et al., Anal. Biochem. 1991, 194, 330-344). For compound 15b (transposed), the longest wavelength emission observed from the phenoxide occurred near 770 nm.
# Fluorescence was measured using a 15 μM solution of compound 15d in a solution that was 90% aqueous, 10% DMSO. […] For compound 15d (transposed), the longest wavelength emission observed from the phenoxide occurred near 780 nm (NaOH, pH 12).
# Compounds 20b and 15g also were characterized by their fluorescence emission spectra. Fluorescence was measured using 15 μM solutions of each compound in a solution that was 90% aqueous, 10% DMSO. For compound 20b, the longest wavelength emission observed from the cation occurred near 640 nm at pH 7.4. For compound 15g (transposed), the longest wavelength emission observed from the cation occurred near 770 nm at pH 7.4.
# [3] = Spectral properties of rhodamine bis-boronic acids and precursors in DMSO:buffer; assay type: physicochemical; design: Brightness: scale not given here
# Experimental: Characterization: The spectral properties of compounds 50-53 were determined. Absorption and fluorescence spectra of solutions of the rhodamine bis-boronic acids 51 and 53, and their respective precursors 50 and 52, are shown in FIGS. 27A-C (in DMSO:buffer 1:9) and 27D-F (DMSO:buffer 1:1). […] Excitation and emission spectra were normalized to their absorbance at the excitation wavelength, and are proportional to quantum yield.
# [4] = Emission in blood (whole porcine blood in buffer)
# Experimental: Compound 15d (Table 1) was diluted to 40 μM in 50% DMSO:50% 25 mM pH 9 phosphate buffer. […] Emission remained stable for at least 1 hr. The absorption profile matches the output of a laser pointer (635-670 nm; max output <5 mW).
# Its absorbance and fluorescence spectra faded over time, but remained visible after about an hour (although with only 10-20% of its original emission intensity). Molecular modeling has shown favorable structural interactions of compounds 5f and 24 with glutathione (FIG. 12—compound 24).
# Spectral behavior of compound 15g (type [c] annulated seminaphtho-rhodamine methyl ester (free amine) with the 3-1 transposition) was investigated to determine its potential for sensing use in whole blood. Solutions of compound 15g in 10% or 90% by volume whole blood (porcine blood in Na-EDTA, Lampire Biological Laboratories) were investigated in a 3×3 mm cell. The fluorophore was first dissolved in 50 mM, pH 7.4 phosphate buffer to ensure complete dissolution, and in the case of 90% whole blood, this stock solution was mixed with whole blood in a 1:9 ratio. In the case of 10% whole blood, 1 part whole blood was added to 9 parts of an appropriately diluted (with deionized water) solution of compound 15g stock. In both cases, the final concentration of compound 15g was 150 μM with a final phosphate buffer concentration of 5 mM. […] Throughout much of the spectrum, the dye produces a greater absorbance than the blood alone. The change in absorbance between the two spectra provides the effective absorbance of the dye. […] The broad absorption and large Stokes shift of this dye allows significant excitation with greater than 50% efficiency at wavelengths beyond that of the major hemoglobin peaks in blood.
# [5] = Absorbance and fluorescence in methanol; assay type: physicochemical
# Experimental: Absorbance and fluorescence of compounds 22 and 8 also were measured in methanol. […] Thus, placement of the hydroxyl group proximal to the xanthene internal oxygen in compound 8 produced a bathochromic shift of 103 nm in the absorption spectrum. The transposition also imparted a corresponding shift in the excitation spectrum, and a large bathochromic shift of 128 nm in the fluorescence emission. Importantly, compound 8 absorbs and emits in the near-infrared with absorption and emission maxima of 701 nm and 816 nm, respectively.
# Absorbance and fluorescence of compounds 20a and 15a also were measured in methanol. […] Thus, placement of the hydroxyl group proximal to the xanthene internal oxygen in compound 15a produced a bathochromic shift of 15 nm in the absorbance spectrum. The transposition also imparted a corresponding shift in the excitation spectrum, and a large bathochromic shift of 32 nm in the fluorescence emission.
# [6] = NaOH (pH 12), anionic/phenoxide form, 90% aqueous 10% DMSO
# [7] = DMSO:buffer 1:1, pH 7.4 phosphate buffer 12.5 mM
# [8] = DMSO:buffer 1:9, pH 7.4 phosphate buffer 12.5 mM
# [9] = pH 6, predominantly neutral/phenolic form
smiles,measurement,setting,value
COC(=O)c1ccccc1-c1c2ccc(=O)cc-2oc2c1ccc1cc(O)ccc12 [Compound 20c],Absorbance peak,[1]; [6],545 nm
same,Stokes shift,[2],about 95 nm
same,Longest wavelength emission,"[2]; NaOH (pH 12), anion/phenoxide",~640 nm
"N=c1ccc2c(-c3ccccc3C(=O)O)c3ccc4cc(N)ccc4c3oc-2c1 [Compound 50, seminaphthorhodamine]",Quantum yield,[3]; DMSO buffer 1:9,19%
same,Red shift of maximum absorption compared to rhodamine 110,[3]; DMSO buffer 1:9,40 nm
same,Red shift of maximum emission compared to rhodamine 110,[3]; DMSO buffer 1:9,~100 nm
same,Brightness,[3]; DMSO:buffer 1:1,6298
same,Em,[3]; DMSO:buffer 1:1,630 nm
same,Ex,[3]; DMSO:buffer 1:1,542 nm
same,Q.Y.,[3]; DMSO:buffer 1:1,0.30
same,ε,[3]; DMSO:buffer 1:1,21064 M⁻¹ cm⁻¹
same,Abs,[3]; [7],542 nm
same,Brightness,[3]; DMSO:buffer 1:9,8083
same,Em,[3]; DMSO:buffer 1:9,628 nm
same,Ex,[3]; DMSO:buffer 1:9,534 nm
same,Q.Y.,[3]; DMSO:buffer 1:9,0.19
same,ε,[3]; DMSO:buffer 1:9,42701 M⁻¹ cm⁻¹
same,Abs,[3]; [8],535 nm
COC(=O)c1ccccc1-c1c2ccc(=N)cc-2oc2c1ccc1cccc(N)c12 [Compound 15g],Red shift of absorption spectra from 3-1 transposition versus known regiochemistry,[1]; 90% aqueous 10% DMSO,about 30 nm
same,Absorbance peak,"[1]; pH 7.4, 90% aqueous 10% DMSO",570 nm
same,Enhancement of the Stokes shift by 3-1 transposition,[2],about 100 nm
same,Stokes shift,[2],about 200 nm
same,Red-shifted emission from 3-1 transposition versus known regiochemistry,[2],about 130 nm
same,Longest wavelength emission,"[2]; pH 7.4, cation",~770 nm
same,Emission spectrum maximum,"[4]; 150 μM, 10% and 90% whole blood, excitation at 670 nm",about 750 nm
"COC(=O)c1ccccc1-c1c2ccc3cc(O)ccc3c2oc2c1ccc1cc(=O)ccc12 [Compound 22, naphthofluorescein methyl ester]",Absorbance peak,[1]; [6],610 nm
same,Absorbance peak,"[1]; pH 7.4, 90% aqueous 10% DMSO",605 nm
same,Absorption maximum,[5],598 nm
same,Emission maximum,[5],688 nm
same,Stokes shift,[2],about 80 nm
same,Longest wavelength emission,[2]; pH 9,~690 nm
Cc1ccc(C)c(-c2c3ccc4cccc(O)c4c3oc3c2ccc2cccc(=O)c23)c1 [Compound 4a],Stability of absorption in the blood solution,[4]; blood solution,remained stable over extended periods of time
COC(=O)c1ccccc1-c1c2ccc(=N)cc-2oc2c1ccc1cccc(O)c12 [Compound 15b],Red shift of absorption spectra from 3-1 transposition versus known regiochemistry,[1]; 90% aqueous 10% DMSO,50-65 nm
same,Absorbance peak,[1]; [6],615 nm
same,Absorbance peak,[1]; [9],535 nm
same,Enhancement of the Stokes shift by 3-1 transposition,[2],about 73 nm
same,Stokes shift,[2],about 155 nm
same,Red-shifted emission from 3-1 transposition versus known regiochemistry,[2],about 138 nm
same,Longest wavelength emission,[2]; pH not stated,~770 nm
COC(=O)c1ccccc1-c1c2ccc(=N)cc-2oc2c1ccc1cc(N)ccc12 [Compound 20b],Absorbance peak,"[1]; pH 7.4, 90% aqueous 10% DMSO",540 nm
same,Stokes shift,[2],about 100 nm
same,Longest wavelength emission,"[2]; pH 7.4, cation",~640 nm
"O=C1OC2(c3ccccc31)c1ccc3cc(O)ccc3c1Oc1c2ccc2cc(O)ccc12 [Compound 21, Naphthofluorescein, reference compound]",Absorbance peak,[1]; [6],600 nm
same,Absorbance peak,"[1]; pH 7.4, 90% aqueous 10% DMSO",590 nm
same,Stokes shift,[2],about 80 nm
same,Longest wavelength emission,[2]; pH 9,~680 nm
"N=c1ccc2c(ccc3c(-c4ccccc4C(=O)O)c4ccc5cc(N)ccc5c4oc32)c1 [Compound 52, naphthorhodamine]",Quantum yield,[3]; DMSO buffer 1:9,10%
same,Brightness,[3]; DMSO:buffer 1:1,121^g
same,Em,[3]; DMSO:buffer 1:1,676 nm
same,Ex,[3]; DMSO:buffer 1:1,596 nm
same,Q.Y.,[3]; DMSO:buffer 1:1,0.11
same,ε,[3]; DMSO:buffer 1:1,1081 M⁻¹ cm⁻¹
same,Abs,[3]; [7],602 nm
same,Brightness,[3]; DMSO:buffer 1:9,1144^d
same,Em,[3]; DMSO:buffer 1:9,668 nm
same,Ex,[3]; DMSO:buffer 1:9,584 nm
same,Q.Y.,[3]; DMSO:buffer 1:9,0.10
same,ε,[3]; DMSO:buffer 1:9,11994 M⁻¹ cm⁻¹
same,Abs,[3]; [8],578 nm
COC(=O)c1ccccc1-c1c2ccc(=O)cc-2oc2c1ccc1cccc(O)c12 [Compound 15a],Red shift of absorption spectra from 3-1 transposition versus known regiochemistry,[1]; 90% aqueous 10% DMSO,10-55 nm
same,Absorbance peak,[1]; [9],525 nm
same,Absorption maximum,[5],501 nm and 536 nm
same,Bathochromic shift in the absorption spectrum versus known regiochemistry,[5],15 nm
same,Bathochromic shift in the fluorescence emission versus known regiochemistry,[5],32 nm
same,Emission maximum,[5],582 nm
COC(=O)c1ccccc1-c1c2ccc(=O)cc-2oc2c1ccc1cc(O)ccc12 [Compound 20a],Absorbance peak,[1]; [9],515 nm
same,Absorption maximum,[5],487 nm and 521 nm
same,Emission maximum,[5],550 nm
